Assay results from patent US4088772A, “Methanodibenzocycloheptapyrroles” (E. I. Du Pont de Nemours and Company, priority 1975, dated 1978).
Where two headings read alike, the source gives them in different places.

What was measured:
in vivo = settings: mouse, in vivo, po
female white mice = assay: animal or person; settings: Mus musculus, po
female CF1 S mice = assay: Mouse spontaneous motor activity (activity cage); assay type: in vivo, mouse (CF1 S female); settings: 0.5 h, Table 1, oral, mice, 30 minutes after dosing, read-out: Exploratory Loss Activity Cage ED50
Protocol: Mouse Spontaneous Motor Activity (Activity Cage)
Twenty-four per dose, 16- 20 g or 18-22 g, female CF1 S mice, fasted 16- 22 hours, are intubated (in pairs) with drug at t doses such as 0, 1, 3, 9, 27 and 81 mg/kg in 10 ml/kg of aqueous 1% methylcellulose. The mice are then put in separate "shoe-box" cages (12 × 7.5 × 5.3 inches plastic with a 0.33 inch mesh stainless steel lid), and 20 minutes after intubation the animals in pairs are moved to covered Woodard Photoelectric Activity Chambers (central light source type measurement floor area = 96 in^2). Ten minutes later (30 minutes after dosing) a 5-minute count is taken. Counting chamber characteristics are balanced out by counting 2 pairs of mice from each dose level in each of 6 different counting chambers. Half of each test is run in the a.m. and the other half is run in the p.m. to minimize "biological clock" variations.
Canad. Biol. 20, 239-50 (1961), raw counts are thus transformed for statistical treatment (Student's t test). The means of the square roots then are squared and an ED50 for stimulation or depression (or both) is determined graphically.

[1] = tested on: phenylquinone-induced writhing; assay: Phenylquinone writhing test (analgesia); assay type: in vivo, mouse (Carworth CF1 S female); settings: Mus musculus, po, Table 1, mice
Excerpt: This mouse test is predictive of analgesic response in humans. [E. Siegmund, R. Cadmus and G. Lee, Proc. Soc.
ED50 values were obtained graphically from the data.

Holzman male white rats = assay: Rat approach-avoidance test (anti-anxiety); assay type: in vivo, rat (Holzman male white); settings: for No. of Responders / ED50: 4 hrs; for ED50: Rattus norvegicus, Table II, oral, rats, read-out: ED50; for anti-anxiety activity: in words
Protocol: Potential as anti-anxiety agents was assessed by means of the potency of these compounds in the rat approach-avoidance test.
Approach-Avoidance Test Method
18 hr. waterdeprived Holzman male white rats, 150-175 g each, were used. The apparatus consists of two interconnected chambers, the first in which the animal is placed, and a second which contains the stimulus and a water bottle. The second is fitted with an electrifiable floor. On the first day, the rats are placed in the first chamber. They are allowed three minutes to find the water bottle in the second chamber and to drink water for at least two seconds. After three successful trials on the first day the animals are given one predrug trial on the second day. Then follows a second predrug trial during which the floor of the second chamber is electrified 1.5 seconds after the rat has commenced drinking water. The animals are randomized, dosed orally, and reexposed to the test situation at 1, 2, or 4 hours after the shock trial.

[2] = read-out: Catatonia ED50, Table 1, oral, mice
[3] = read-out: Exploratory Loss Visual ED50, Table 1, oral, mice
[4] = read-out: Muscle Tone ED50, Table 1, oral, mice
[5] = read-out: Ptosis ED50, Table 1, Extrapolated value
[6] = read-out: Reflexes Lift ED50, Table 1, oral, mice
[7] = read-out: Reflexes Pinna ED50, Table 1, oral, mice

Compound	ED50 (in vivo) [mg/kg]	LD50 at 24 h (in vivo) [mg/kg]	ED50 (female white mice; [2]) [mg/kg]	ED50 (female white mice; [3]) [mg/kg]	ED50 (female white mice; [4]) [mg/kg]	ED50 (female white mice; [5]) [mg/kg]	ED50 (female white mice; read-out: Reflexes Grip ED50, Table 1, oral, mice) [mg/kg]	ED50 (female white mice; [6]) [mg/kg]	ED50 (female white mice; [7]) [mg/kg]	ED50 (female CF1 S mice) [mg/kg]	ED50 [1] [mg/kg]	No. of Responders (Holzman male white rats; 0.03 mg/kg oral, N=10 rats)	No. of Responders (Holzman male white rats; 0.1 mg/kg oral, N=20 rats)	No. of Responders (Holzman male white rats; 0.3 mg/kg oral, N=10 rats)	ED50 (Holzman male white rats) [mg/kg]	anti-anxiety activity (Holzman male white rats)	ED50 (female white mice; read-out: Reflexes Grip ED50, Table 1, Extrapolated value) [mg/kg]	No. of Responders (Holzman male white rats; 0.1 mg/kg oral, N=10 rats)	No. of Responders (Holzman male white rats; 1.0 mg/kg oral, N=8 rats)
c1ccc2c(c1)C1CC3(CN(CC4CCCC4)CC23)c2ccccc21 (centres unmarked) [Example 7, 2-Cyclopentylmethyl-2,3,8,12b-tetrahydro-1H-3a,8-methanodibenzo[3,4:6,7]cyclohepta[1,2-c]pyrrole]	> 324	> 324	8	7	7	3	210	11	9	0.66	2	1	7	6	0.2	potent anti-anxiety or minor tranquilizer activity			
c1ccc2c(c1)C1CC3(CN(CC4CCCCC4)CC23)c2ccccc21 (centres unmarked) [Example 25, 2-Cyclohexylmethyl-2,3,8,12b-tetrahydro-1H-3a,8-methanodibenzo[3,4:6,7]cyclohepta[1,2-c]pyrrole]	450	320	9	9	8	3		8	7	4.7	6.4			2	0.5	potent anti-anxiety or minor tranquilizer activity	450	1	5
